Test results reported in patent publication US8445680B2, “Tetrahydrothieno pyridines” (Merck Sharp & Dohme Corp., priority 2008, dated 2013).

Each compound was assayed against T1, FLAG-tagged full length PHD2 (Homo sapiens, UniProt Q9GZT9) (assay: PHD2 inhibition assay (time resolved fluorescence, HIF-1α peptide hydroxylation, VHL detection)). Settings: 0.2 μM 2-oxoglutarate, 0.5 μM HIF-1α peptide, 2 hr at room temperature; read-out: PHD2 Activity (PHD2 binding activity expressed as IC50).
T1 construct: FLAG-tagged full length PHD2; FLAG; made in house; host or cells: baculovirus-infected Sf9 cells
T1 sequence (Q9GZT9 whole entry): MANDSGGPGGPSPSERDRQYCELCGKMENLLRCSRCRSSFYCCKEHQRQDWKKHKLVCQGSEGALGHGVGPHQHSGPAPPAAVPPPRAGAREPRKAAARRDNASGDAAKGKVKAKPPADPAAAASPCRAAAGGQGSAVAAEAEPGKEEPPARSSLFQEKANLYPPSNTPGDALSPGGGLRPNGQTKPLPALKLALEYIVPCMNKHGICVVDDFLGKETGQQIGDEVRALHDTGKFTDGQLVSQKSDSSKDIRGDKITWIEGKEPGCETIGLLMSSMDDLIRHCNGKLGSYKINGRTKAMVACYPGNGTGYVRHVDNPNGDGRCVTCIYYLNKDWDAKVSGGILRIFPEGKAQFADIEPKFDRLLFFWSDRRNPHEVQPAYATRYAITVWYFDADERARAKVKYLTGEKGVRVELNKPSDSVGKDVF
Type: biochemical
Description: To each well of a 96-well plate was added 1 μL of test compound in DMSO and 20 μl of assay buffer (50 mM Tris pH 7.4/0.01% Tween-20/0.1 mg/ml bovine serum albumin/10 μM ferrous sulfate/1 mM sodium ascorbate/20 μg/ml catalase) containing 0.15 μg/ml FLAG-tagged full length PHD2 expressed in and purified from baculovirus-infected Sf9 cells. After a 30 min preincubation at room temperature, the enzymatic reactions were initiated by the addition of 4 μL of substrates (final concentrations of 0.2 μM 2-oxoglutarate and 0.5 μM HIF-1α peptide biotinyl-[…]).
With `O=C(O)CNC(=O)c1c(O)c2c(n(Cc3ccc(Cl)nc3)c1=O)CSC2` [Example 1, N-({1-[(6-chloropyridin-3-yl)methyl]-4-hydroxy-2-oxo-1,2,5,7-tetrahydrothieno[3,4-b]pyridin-3-yl}carbonyl)glycine] the IC50 was ≤ 10 nM.
In the case of `O=C(O)CNC(=O)c1c(O)c2c(n(Cc3ccc(Br)cc3)c1=O)CSC2` [Example 2], the IC50 is reported as ≤ 10 nM.
`N#Cc1ccc(Cn2c3c(c(O)c(C(=O)NCC(=O)O)c2=O)CSC3)cc1` [Example 3, N-{[1-(4-cyanobenzyl)-4-hydroxy-2-oxo-1,2,5,7-tetrahydrothieno[3,4-b]pyridin-3-yl]carbonyl}glycine] was tested, and the IC50 was ≤ 10 nM.
With `O=C(O)CNC(=O)c1c(O)c2c(n(Cc3ccc(C(F)(F)F)cc3)c1=O)CSC2` [Example 4, N-({4-hydroxy-2-oxo-1-[4-(trifluoromethyl)benzyl]-1,2,5,7-tetrahydrothieno[3,4-b]pyridin-3-yl]carbonyl)glycine] the IC50 was ≤ 10 nM.
In the case of `O=C(O)CNC(=O)c1c(O)c2c(n(Cc3ccc(C(F)(F)F)nc3)c1=O)CSC2` [Example 5, N-[(4-hydroxy-2-oxo-1-{[6-(trifluoromethyl)pyridin-3-yl]methyl]-1,2,5,7-tetrahydrothieno[3,4-b]pyridin-3-yl)carbonyl]glycine], the IC50 is reported as ≤ 10 nM.
For `CS(=O)(=O)c1ccc(Cn2c3c(c(O)c(C(=O)NCC(=O)O)c2=O)CSC3)cc1` [Example 6, N-({4-hydroxy-1-[4-(methylsulfonyl)benzyl]-2-oxo-1,2,5,7-tetrahydrothieno[3,4-d]pyridin-3-yl]carbonyl)glycine], the IC50 was ≤ 10 nM.
With `O=C(O)CNC(=O)c1c(O)c2c(n(Cc3nc(-c4ccccc4)cs3)c1=O)CSC2` [Example 7, N-({4-hydroxy-2-oxo-1-[(4-phenyl-1,3-thiazol-2-yl)methyl]-1,2,5,7-tetrahydrothieno[3,4-b]pyridin-3-yl}carbonyl)glycine] the IC50 was ≤ 10 nM.
In the case of `CC(C)c1ccc(Cn2c3c(c(O)c(C(=O)NCC(=O)O)c2=O)CSC3)cc1` [Example 8, N-{[4-hydroxy-1-(4-isopropylbenzyl)-2-oxo-1,2,5,7-tetrahydrothieno[3,4-b]pyridin-3-yl]carbonyl]glycine], the IC50 is reported as ≤ 10 nM.
With `CC(C)(C)c1ccc(Cn2c3c(c(O)c(C(=O)NCC(=O)O)c2=O)CSC3)cc1` [Example 9, N-{[1-(4-tert-butylbenzyl)-4-hydroxy-2-oxo-1,2,5,7-tetrahydrothieno[3,4-b]pyridin-3-yl]caxbonyl]glycine] the IC50 was ≤ 10 nM.
In the case of `O=C(O)CNC(=O)c1c(O)c2c(n(Cc3noc(-c4ccccc4)n3)c1=O)CSC2` [Example 10, N-({4-hydroxy-2-oxo-1-[(5-phenyl-1,2,4-oxadiazol-3-yl)methyl]-1,2,5,7-tetrahydrothieno[3,4-b]pyridin-3-yl]carbonyl)glycine], the IC50 is reported as ≤ 10 nM.
With `O=C(O)CNC(=O)c1c(O)c2c(n(Cc3nc4ccccc4s3)c1=O)CSC2` [Example 11, N-{[1-(1,3-benzothiazol-2-ylmethyl)-4-hydroxy-2-oxo-1,2,5,7-tetrahydrothieno[3,4-b]pyridin-3-yl]carbonyl]glycine] the IC50 was ≤ 10 nM.
For `O=C(O)CNC(=O)c1c(O)c2c(n(-c3ccc(Br)cc3)c1=O)CSC2` [Example 12, N-{[1-(4-bromophenyl)-4-hydroxy-2-oxo-1,2,5,7-tetrahydrothieno[3,4-b]pyridin-3-yl]carbonyl]glycine], the IC50 was ≤ 10 nM.
An IC50 of 10 to 100 nM was found for `O=C(O)CNC(=O)c1c(O)c2c(n(Cc3cc(F)cc(C(F)(F)F)c3)c1=O)CSC2` [Example 13, N-({l-[3-fluoro-5-(trifluoromethyl)benzyl]-4-hydroxy-2-oxo-1,2,5,7-tetrahydrothieno[3,4-b]pyridin-3-yl]carbonyl)glycine] in this work.
For `O=C(O)CNC(=O)c1c(O)c2c(n(Cc3cccc(Cl)c3)c1=O)CSC2` [Example 14, N-{[1-(3-chlorobenzyl)-4-hydroxy-2-oxo-1,2,5,7-tetrahydrothieno[3,4-b]pyridin-3-yl]carbonyl}glycine], the IC50 was ≤ 10 nM.
`Cc1cc(Cl)ccc1Cn1c2c(c(O)c(C(=O)NCC(=O)O)c1=O)CSC2` [Example 15, N-{[1-(4-chloro-2-methylbenzyl)-4-hydroxy-2-oxo-1,2,5,7-tetrahydrothieno[3,4-b]pyridin-3-yl]carbonyl}glycine] was tested, and the IC50 was ≤ 10 nM.
In the case of `O=C(O)CNC(=O)c1c(O)c2c(n(Cc3ccc(Cl)cc3)c1=O)CSC2` [Example 16, N-{[1-(4-chlorobenzyl)-4-hydroxy-2-oxo-1,2,5,7-tetrahydrothieno[3,4-b]pyridin-3-yl]carbonyl}glycine], the IC50 is reported as ≤ 10 nM.
With `CCc1ccc(Cn2c3c(c(O)c(C(=O)NCC(=O)O)c2=O)CSC3)cc1` [Example 17, N-{[1-(4-ethylbenzyl)-4-hydroxy-2-oxo-1,2,5,7-tetrahydrothieno[3,4-b]pyridin-3-yl]carbonyl}glycine] the IC50 was ≤ 10 nM.
For `O=C(O)CNC(=O)c1c(O)c2c(n(Cc3ccc(Cl)c(C(F)(F)F)c3)c1=O)CSC2` [Example 18, N-({1-[4-chloro-3-(trifluoromethyl)benzyl]-4-hydroxy-2-oxo-1,2,5,7-tetrahydrothieno[3,4-b]pyridin-3-yl}carbonyl)glycine], the IC50 was ≤ 10 nM.
`O=C(O)CNC(=O)c1c(O)c2c(n(Cc3ccc(Cl)c(Cl)c3)c1=O)CSC2` [Example 19, N-{[1-(3,4-dichlorobenzyl)-4-hydroxy-2-oxo-1,2,5,7-tetrahydrothieno[3,4-b]pyridin-3-yl]carbonyl}glycine] was tested, and the IC50 was ≤ 10 nM.
With `O=C(O)CNC(=O)c1c(O)c2c(n(Cc3ccc(OC(F)(F)F)cc3)c1=O)CSC2` [Example 20, N-({4-hydroxy-2-oxo-1-[4-(trifluoromethoxy)benzyl]-1,2,5,7-tetrahydrothieno[3,4-b]pyridin-3-yl}carbonyl)glycine] the IC50 was ≤ 10 nM.
For `O=C(O)CNC(=O)c1c(O)c2c(n(Cc3coc(-c4ccccc4)n3)c1=O)CSC2` [Example 21, N-({4-hydroxy-2-oxo-1-[(2-phenyl-1,3-oxazol-4-yl)methyl]-1,2,5,7-tetrahydrothieno[3,4-b]pyridin-3-yl}carbonyl)glycine], the IC50 was ≤ 10 nM.
`O=C(O)CNC(=O)c1c(O)c2c(n(Cc3cc4ccccc4s3)c1=O)CSC2` [Example 22, N-{[1-(1-benzothien-2-ylmethyl)-4-hydroxy-2-oxo-1,2,5,7-tetrahydrothieno[3,4-b]pyridin-3-yl]carbonyl}glycine] was tested, and the IC50 was ≤ 10 nM.
In the case of `O=C(O)CNC(=O)c1c(O)c2c(n(Cc3ccc(-n4cccn4)cc3)c1=O)CSC2` [Example 23, N-({4-hydroxy-2-oxo-1-[4-(1H-pyrazol-1-yl)benzyl]-1,2,5,7-tetrahydrothieno[3,4-b]pyridin-3-yl}carbonyl)glycine], the IC50 is reported as ≤ 10 nM.
With `O=C(O)CNC(=O)c1c(O)c2c(n(Cc3cnn(-c4ccccc4)c3)c1=O)CSC2` [Example 24, N-({4-hydroxy-2-oxo-1-[(1-phenyl-1H-pyrazol-4-yl)methyl]-1,2,5,7-tetrahydrothieno[3,4-b]pyridin-3-yl}carbonyl)glycine] the IC50 was ≤ 10 nM.
For `Cc1ccc(-c2ccc(Cn3c4c(c(O)c(C(=O)NCC(=O)O)c3=O)CSC4)cc2)cc1` [Example 25, N-({4-hydroxy-1-[(4′-methylbiphenyl-4-yl)methyl]-2-oxo-1,2,5,7-tetrahydrothieno[3,4-b]pyridin-3-yl}carbonyl)glycine], the IC50 was ≤ 10 nM.
In the case of `O=C(O)CNC(=O)c1c(O)c2c(n(Cc3cnc(-c4ccccc4F)cn3)c1=O)CSC2` [Example 26, N-[(1-{[5-(2-fluorophenyl)pyrazin-2-yl]methyl}-4-hydroxy-2-oxo-1,2,5,7-tetrahydrothieno[3,4-b]pyridin-3-yl)carbonyl]glycine], the IC50 is reported as ≤ 10 nM.
